What was measured:
hsp90 = test: UBP far-western analysis on hsp90; type: binding; conditions: purified hsp90
Procedure: The numbers to the left of the blots indicate the molecular weights in kilodaltons. The regions of UBP contained in each fusion construct are diagrammed below the blots. The right column summarizes the results: a plus symbol indicates binding and a minus symbol indicates no binding.
Western blots were performed using standard techniques. Briefly, 30 μg HeLa cytoplasmic extract or 20 ng of hsc70, hsp70, or hsp90 were denatured in 1×SDS sample buffer. The samples were loaded on a 10% polyacrylamide gel. Separated protein was transferred to nitrocellulose membranes. The membranes were blocked in 5% dry milk protein in TBS (20 mM Tris [pH 7.4], 100 mM NaCl) for 45 min. […] Primary antibody, either anti-hsp70 or hsp90 monoclonal antibodies, or anti-UBP rabbit polyclonal antibody was incubated with the blots at appropriate concentrations (1:1000 dilutions for each) in 5% milk protein in TBS for 2 hours at 4° C. with gentle rocking. The membranes were washed with TBS for 10 minutes. Secondary antibody, either alkaline phosphatase conjugated goat anti-mouse IgG or alkaline phosphatase conjugated goat anti-rabbit IgG diluted at 1:5000 in 5% Milk in TBS, was incubated with the blots for 2 hours at 4° C. with gentle rocking. […]

HIV-1 = conditions: overexpression in virus-producing cells (Callahan et al., 1998); cited from earlier work
hsc70 [1] = biological target: T1, hsc70 (Bos taurus, UniProt P19120); test: Hsc70 ATPase assay; type: biochemical; parameters: purchased Stressgen; conditions: 28 nM hsc70, 0-176 nM UBP, 1 hr at 30° C.
T1 sequence (P19120 2-650 limits assumed): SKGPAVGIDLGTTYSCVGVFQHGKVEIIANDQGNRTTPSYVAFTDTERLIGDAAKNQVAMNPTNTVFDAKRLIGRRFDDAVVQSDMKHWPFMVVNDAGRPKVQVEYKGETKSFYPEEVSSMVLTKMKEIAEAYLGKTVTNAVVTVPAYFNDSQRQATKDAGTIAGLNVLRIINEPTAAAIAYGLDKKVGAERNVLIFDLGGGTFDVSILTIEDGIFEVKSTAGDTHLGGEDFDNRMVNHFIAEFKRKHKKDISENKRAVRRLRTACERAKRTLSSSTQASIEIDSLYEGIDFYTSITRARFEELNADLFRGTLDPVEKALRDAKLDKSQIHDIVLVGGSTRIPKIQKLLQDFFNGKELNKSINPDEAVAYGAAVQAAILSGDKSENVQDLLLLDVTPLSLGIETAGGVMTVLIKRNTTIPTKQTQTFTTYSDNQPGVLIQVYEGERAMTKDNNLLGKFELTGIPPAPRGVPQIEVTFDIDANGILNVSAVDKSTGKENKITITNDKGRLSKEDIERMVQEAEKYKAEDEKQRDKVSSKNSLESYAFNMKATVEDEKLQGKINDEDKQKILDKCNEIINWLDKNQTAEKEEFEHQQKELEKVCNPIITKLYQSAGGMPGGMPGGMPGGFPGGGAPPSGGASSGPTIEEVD
Procedure: ADP was separated from ATP by thin-layer chromatography and quantified using a phosphorimager. […] The data are represented as the percent ATP hydrolysis and are plotted as a function of time from 0-75 minutes.
ATPase assays were performed essentially as described (Liberek et al., 1991, J. Biol. Chem. 266:14491-14496). […] The reactions were carried out at 30° C. in ATPase buffer (30 mM 4-(-2 hydroxymethl)-1-piperazineethanesulfonic acid (HEPES) buffer pH 7.5, 40 mM KCl, 50 mM NaCl, 5 mM MgCl2, and 2 mM dithiothreitol). […] A 5 μl aliquot of each reaction was directly loaded onto a polyethylamine-cellulose (PEI)-thin layer sheet (Selecto Scientific, Suwanee, Ga.). The products were separated from the substrate by chromatography using 1 M formic acid/1 M LiCl (1:1, vol/vol) as a vehicle. The location of ADP and ATP on the plates was visualized by use of a Phosphorimager (Molecular Dynamics, San Jose, Calif.). […] Five μl aliquots of each reaction were taken at time points of 0, 15, 30, 45, 60, 75 minutes. The samples were analyzed as previously described. Data were quantified and expressed as the percent ATP hydrolysis.

hsc70 [2] = biological target: T1, hsc70; test: UBP far-western analysis on hsc70; type: binding; parameters: purchased Stressgen; conditions: GST fusions as probe
Excerpt: (§1) FIG. 13A: Thirty μg of HeLa cell lysate was separated by SDS-PAGE in three identical lanes, blotted to nitrocellulose and probed with either, no probe (none), GST alone, or GST-UBP. The far-western blot was then developed with anti-GST antibody to reveal bands which interact with UBP. The arrow to the right indicates a 70 kD band detected by the GST-UBP fusion. The numbers to the left of each blot represent molecular weights in kilodaltons. […] FIG. 13C, Samples from the GST-UBP pull down assay were analyzed by western blot for the presence hsc70. At the bottom of the gel, the contents of each reaction are indicated by the plus symbols. The NaCl concentration of the washing buffer (100, 200, 300, and 500 mM) is indicated at the top of each lane. The arrow to the right of the blot indicates the position of the hsc70 band.
The term “hsc70” is used when referring to both hsp70 and its nearly identical constitutive counterpart, hsc70. […] The numbers to the left of the blots indicate the molecular weights in kilodaltons. The diagram below the blots indicates regions of UBP contained in each fusion construct. The column to the right summarizes the results, where a plus symbol indicates binding and a minus symbol indicates no binding.
Western blots were performed using standard techniques. […]

hsc70 [3] = biological target: T1, hsc70; test: GST-UBP/hsc70 pull down assay with NaCl washes; type: binding; parameters: purchased Stressgen; conditions: washes of increasing NaCl, up to 0.5 M NaCl
Excerpt: as §1
Either GST or GST-UBP protein was incubated with a 100 μl bed volume of beads in a total volume of 300 μl of binding buffer at 4° C. with gentle rocking for 2 hours. The beads were washed and then blocked with 5% BSA in binding buffers. The beads were washed in binding buffer then incubated with 200 ng of hsc70 in binding buffer for 2 hours at 4° C. […] The samples were heated to 80° C. for 3 minutes then supernatants recovered by centrifugation were analyzed by western blot for hsc70.

hsc70 [4] = biological target: T1, hsc70; test: Refolding of heat-denatured luciferase by hsc70; conditions: 28 nM hsc70, 1 mM ATP, 0 to 100 minutes at 30° C.
SN hantavirus = type: cell-based, Sin Nombre virus

Molecule	association with hsp90 (hsp90)	HIV-1 virion release (HIV-1)	hsc70-mediated hydrolysis of ATP (hsc70 [1])	interaction with hsc70 (hsc70 [2])	stability of UBP-hs70 interaction to NaCl washes (hsc70 [3])	inhibition of hs70-dependent refolding of luciferase (hsc70 [4])	inhibition of viral RNA titers (SN hantavirus) [fold]	viral RNA titers after heat shock (SN hantavirus)
UBP: Viral protein U (Vpu) binding protein, cellular tetratricopeptide repeat (TPR) co-chaperone family member	could associate	significant reduction	negatively affected	does stably associate	maintained even in the presence of relatively high salt concentrations	about 30%		
O=c1c(O)c(-c2ccc(O)c(O)c2)oc2cc(O)cc(O)c12 [quercetin]							7.3	did not have increased levels of viral RNA titers
